The record followed here is patent US20250326771A1, “PIPERAZINE DERIVATIVES USEFUL IN HIV THERAPY” (VIIV HEALTHCARE COMPANY, priority 2022, published 2025).

Like-named read-outs stand apart in the source and are kept apart here.

The subject of assay [1] is Jurkat HIV-luciferase clones. The experiment in a line: Jurkat latency reversal assay. The format is cell-based. As to conditions: Homo sapiens, 48 h; Jurkat latency reversal assay potency; read-out: Jurkat pEC50 (converted). A digest of the protocol:
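A 1:1:1 mix of three Jurkat clones (C16, 115, N6) carrying integrated luciferase-expressing HIV proviruses, 5,000 cells/well, was exposed to 3-fold, 14-point compound titrations from 10 μM at 0.5% DMSO for 48 h at 37° C. Steady-Glo luminescence was fitted by four-parameter logistic regression to give EC50 and maximal percent activation relative to vehicle.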

A further assay concerns the target cIAP1-BIR3 (Homo sapiens (Human), UniProt Q13490). Put plainly: BIR binding assay (FRET competition), cIAP1 BIR3. Particulars: for cIAP1 BIR3 vs BIR2 separation window: fold separation (FS) for cIAP1. A digest of the protocol:
(§1)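 Compounds tested as 15-point, 3-fold series displacing 200 nM AlexaFluor647-labelled SMAC peptide from His-tagged BIR domain (cIAP1-BIR3 50 nM; cIAP1-BIR2 and cIAP2-BIR2 325 nM; XIAP-BIR3 100 nM), pH 7.4, 60 min. Eu-W1024 (2 nM) added 30 min; emission ratio fitted for IC50.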

The target in a further assay is cIAP1-BIR2 (Homo sapiens (Human), UniProt Q13490). Put plainly: BIR binding assay (FRET competition), cIAP1 BIR2. The gist of the method:
as §1

The target of the next assay is cIAP2-BIR3 (Homo sapiens (Human), UniProt Q13489). The experiment in a line: BIR binding assay (FRET competition), cIAP2 BIR3. Particulars: for cIAP2 BIR3 vs BIR2 separation window: fold separation (FS) for cIAP2.
Chain of cIAP2-BIR3 (Q13489 238-349): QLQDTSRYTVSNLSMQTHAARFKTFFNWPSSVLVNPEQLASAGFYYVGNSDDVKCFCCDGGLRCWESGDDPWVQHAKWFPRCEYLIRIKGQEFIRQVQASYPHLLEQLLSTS
The target of the next assay is cIAP2-BIR2 (Homo sapiens (Human), UniProt Q13489). The experiment in a line: BIR binding assay (FRET competition), cIAP2 BIR2. A digest of the protocol:
as §1

Another assay addresses XIAP-BIR3 (Homo sapiens (Human), UniProt P98170). The experiment in a line: BIR binding assay (FRET competition), XIAP BIR3. Particulars: for XIAP BIR3 vs BIR2 separation window: fold separation (FS) for XIAP. The gist of the method:
as §1

The target in the next assay is XIAP-BIR2 (Homo sapiens (Human), UniProt P98170). Put plainly: BIR binding assay (FRET competition), XIAP BIR2. As to conditions: read-out: XIAP BIR2 (pIC50) (converted). How it is done:
The BIR domain binding assays are FRET based competition assays that utilize His-tagged versions of each of the BIR2 and BIR3 domains from cIAP1, cIAP2, and XIAP (each domain assayed separately) each at a custom optimal concentration and a probe, 200 nM SMAC/DIABLO peptide AVPIAQKSE labelled with AlexaFluor647 (part #crb 1110326h, Discovery Peptides). The assay is conducted in 50 mM HEPES, […], 1 mM CHAPS, 5% Glycerol, 1 mM DTT, in dI water with a final pH of 7.4 and final volume of 20 uL. Final protein domain concentrations are: 50 nM cIAP1-BIR3 (Part #APT-11-370 Reaction Biology), 100 nM XIAP-BIR3 (Part #APT-11-351 Reaction Biology), 200 nM XIAP-BIR2 (Part #APT-11-470 Reaction Biology), 325 nM cIAP2-BIR2 (Part #APT-11-489 Reaction Biology), 50 nM cIAP2-BIR3 (Part #APT-11-372 Reaction Biology), 325 nM cIAP1-BIR2 (Part #APT-11-487 Reaction Biology). Compounds were plated using a HP Tecan D300 printer in a final total volume of 202 nl and DMSO concentration normalized across the 15-point, 3-fold dilution series. Peptide and probe were prepared at 2× relative to the concentrations above in binding buffer, 10 uL added to the prepared compound plates, and incubated for 60 minutes. LANCE Eu-W1024 (part #AD0401 Perkin Elmer #, vendor) was prepared at 2× concentration in binding buffer for final concentration of 2 nM, 10 uL added to each well, and plates incubated for 30 minutes. Plates were read on an ENVISION multifunction plate reader with […] laser excitation to obtain the 615 nm/665 nm emission ratio as indicative of probe:protein proximity. Data was analyzed using GraphPad PRISM and curves fit using log(inhibitor) vs. response—Variable slope (four […] method to obtain IC50 and pIC50 values.

Chain of cIAP2-BIR2 (Q13489 158-242): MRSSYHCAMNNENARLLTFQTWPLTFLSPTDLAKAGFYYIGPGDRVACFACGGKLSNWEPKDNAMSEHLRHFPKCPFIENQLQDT
Chain of cIAP1-BIR3 (Q13490 253-363): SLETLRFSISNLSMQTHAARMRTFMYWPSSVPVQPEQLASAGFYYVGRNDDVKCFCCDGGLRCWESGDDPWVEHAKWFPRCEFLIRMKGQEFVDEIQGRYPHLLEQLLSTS
Chain of XIAP-BIR3 (P98170 241-356): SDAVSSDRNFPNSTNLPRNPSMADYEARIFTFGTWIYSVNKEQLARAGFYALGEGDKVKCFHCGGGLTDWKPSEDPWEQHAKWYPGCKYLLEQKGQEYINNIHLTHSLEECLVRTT
Chain of cIAP1-BIR2 (Q13490 173-257): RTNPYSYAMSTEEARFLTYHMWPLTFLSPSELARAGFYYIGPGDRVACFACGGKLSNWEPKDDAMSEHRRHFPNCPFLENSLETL
Chain of XIAP-BIR2 (P98170 124-240): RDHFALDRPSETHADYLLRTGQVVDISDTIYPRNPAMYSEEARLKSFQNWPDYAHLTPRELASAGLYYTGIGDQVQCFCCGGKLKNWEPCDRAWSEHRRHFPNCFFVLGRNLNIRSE

In the case of `C[C@@H]1CN(CC(=O)N2CC(C)(C)c3[nH]c(=O)c(Cc4cc(F)c(F)cc4F)cc32)[C@@H](CN2CCO[C@H](C(=O)NCc3ccc(CNC(=O)[C@@H]4CN(C[C@H]5CN[C@H](C)CN5CC(=O)N5CC(C)(C)c6[nH]c(=O)c(Cc7cc(F)c(F)cc7F)cc65)CCO4)cc3)C2)CN1` [Compound 175, (2S,2′S)-N,N′-(1,4-phenylenebis(methylene)) bis(4-(((2R,5R)-1-(2-(3,3-dimethyl-5-oxo-6-(2,4,5-trifluorobenzyl)-2,3,4,5-tetrahydro-1H-pyrrolo[3,2-b]pyridin-1-yl)-2-oxoethyl)-5-methylpiperazin-2-yl)methyl)morpholine-2-carboxamide)], the EC50 in assay [1] is 0.49 to 12.6 nM. The IC50 at cIAP1-BIR3 was 15.8 to 31.6 nM; on cIAP1-BIR2 it was 1000 to 3160 nM; on cIAP2-BIR3, 7.94 to 15.8 nM; on cIAP2-BIR2, 3160 to 10000 nM; at XIAP-BIR3, 15.8 to 31.6 nM; on XIAP-BIR2 (FRET competition), 10000 to 51300 nM. Moreover, at cIAP1-BIR3, the “cIAP1 BIR3 vs BIR2 separation window” value was “+++ (10,000>FS>1,000)”. For the same compound, on cIAP2-BIR3, the “cIAP2 BIR3 vs BIR2 separation window” value is “+++ (10,000>FS>1,000)”. The “XIAP BIR3 vs BIR2 separation window” value on XIAP-BIR3 was “++++ (FS>10,000)”.

On to `C[C@@H]1CN(CC(=O)N2CC(C)(C)c3[nH]c(=O)c(Cc4ccc(F)cc4)cc32)[C@@H](CN2CCO[C@H](COc3cccc(OC[C@@H]4CN(C[C@H]5CN[C@H](C)CN5CC(=O)N5CC(C)(C)c6[nH]c(=O)c(Cc7ccc(F)cc7)cc65)CCO4)c3Br)C2)CN1` [Example 87, 1,1′-(2,2′-((3R,3′R,6R,6′R)-(((2S,2'S)-(((2-bromo-1,3-phenylene)bis(oxy))bis(methylene))bis(morpholine-2,4-diyl))bis(methylene))bis(3-methylpiperazine-6,1-diyl))bis(acetyl))bis(6-(4-fluorobenzyl)-3,3-dimethyl-1,2,3,4-tetrahydro-5H-pyrrolo[3,2-b]pyridin-5-one)], for which, in assay [1], the EC50 is 0.49 to 12.6 nM. Besides, the IC50 at cIAP1-BIR3 is 7.94 to 15.8 nM; at cIAP1-BIR2 it was 1000 to 3160 nM; at cIAP2-BIR3, 7.94 to 15.8 nM; at cIAP2-BIR2 it was 3160 to 10000 nM; at XIAP-BIR3, 7.94 to 15.8 nM; on XIAP-BIR2 (FRET competition binding), 10000 to 51300 nM. In addition, on cIAP1-BIR3, the “cIAP1 BIR3 vs BIR2 separation window” value is on record as “+++ (10,000>FS>1,000)”. The “cIAP2 BIR3 vs BIR2 separation window” value on cIAP2-BIR3 is recorded as “+++ (10,000>FS>1,000)”. In addition, the “XIAP BIR3 vs BIR2 separation window” value on XIAP-BIR3 was “++++ (FS>10,000)”.

For the compound `C[C@@H]1CN(CC(=O)N2CC(C)(C)c3[nH]c(=O)c(Cc4ccc(F)cc4)cc32)[C@@H](CN2CCO[C@@H](C(=O)NCc3ccc(CNC(=O)[C@H]4CN(C[C@H]5CN[C@H](C)CN5CC(=O)N5CC(C)(C)c6[nH]c(=O)c(Cc7ccc(F)cc7)cc65)CCO4)cc3)C2)CN1` [Example 111, (2R,2′R)-N,N′-(1,4-phenylenebis(methylene))bis(4-(((2R,5R)-1-(2-(6-(4-fluorobenzyl)-3,3-dimethyl-5-oxo-2,3,4,5-tetrahydro-1H-pyrrolo[3,2-b]pyridin-1-yl)-2-oxoethyl)-5-methylpiperazin-2-yl)methyl)morpholine-2-carboxamide)], the EC50 in assay [1] was 12.6 to 63.1 nM. The IC50 at cIAP1-BIR3 is 7.94 to 15.8 nM; on cIAP1-BIR2 it was 3160 to 10000 nM; at cIAP2-BIR3, 7.94 to 15.8 nM; on cIAP2-BIR2, 3160 to 10000 nM; on XIAP-BIR3, 31.6 to 501 nM; on XIAP-BIR2 (FRET competition binding), 10000 to 51300 nM. The “cIAP1 BIR3 vs BIR2 separation window” value on cIAP1-BIR3 is “+++ (10,000>FS>1,000)”. Moreover, at cIAP2-BIR3, the “cIAP2 BIR3 vs BIR2 separation window” value is “+++ (10,000>FS>1,000)”. The “XIAP BIR3 vs BIR2 separation window” value at XIAP-BIR3 is “+++ (10,000>FS>1,000)”.

For the compound `C[C@@H]1CN(CC(=O)N2CC(C)(C)c3[nH]c(=O)c(Cc4ccc(F)cc4)cc32)[C@@H](CN2CCO[C@H](COc3ccccc3OC[C@@H]3CN(C[C@H]4CN[C@H](C)CN4CC(=O)N4CC(C)(C)c5[nH]c(=O)c(Cc6ccc(F)cc6)cc54)CCO3)C2)CN1` [Example 71, 1,1′-(2,2′-((3R,3′R,6R,6′R)-(((2S,2'S)-((1,2-phenylenebis(oxy))bis(methylene))bis(morpholine-2,4-diyl))bis(methylene))bis(3-methylpiperazine-6,1-diyl))bis(acetyl))bis(6-(4-fluorobenzyl)-3,3-dimethyl-1,2,3,4-tetrahydro-5H-pyrrolo[3,2-b]pyridin-5-one)], the EC50 in assay [1] was 63.1 to 316 nM. For the same compound, the IC50 at cIAP1-BIR3 was 7.94 to 15.8 nM; on cIAP1-BIR2, 1000 to 3160 nM; at cIAP2-BIR3, 7.94 to 15.8 nM; on cIAP2-BIR2, 1000 to 3160 nM; on XIAP-BIR3, 15.8 to 31.6 nM; at XIAP-BIR2 (FRET competition binding), 10000 to 51300 nM. Moreover, on cIAP1-BIR3, the “cIAP1 BIR3 vs BIR2 separation window” value is listed as “++ (1,000>FS>100)”. Further, the “cIAP2 BIR3 vs BIR2 separation window” value on cIAP2-BIR3 is reported as “+++ (10,000>FS>1,000)”. The “XIAP BIR3 vs BIR2 separation window” value on XIAP-BIR3 is “++++ (FS>10,000)”.

As to `C[C@@H]1CN(CC(=O)N2CC(C)(C)c3[nH]c(=O)c(Cc4ccc(F)cc4)cc32)[C@@H](CN2CCO[C@H](COCc3cccc(COC[C@@H]4CN(C[C@H]5CN[C@H](C)CN5CC(=O)N5CC(C)(C)c6[nH]c(=O)c(Cc7ccc(F)cc7)cc65)CCO4)n3)C2)CN1` [Example 84, 1,1′-(2,2′-((3R,3′R,6R,6′R)-(((2S,2'S)-(((pyridine-2,6-diylbis(methylene))bis(oxy))bis(methylene))bis(morpholine-2,4-diyl))bis(methylene))bis(3-methylpiperazine-6,1-diyl))bis(acetyl))bis(6-(4-fluorobenzyl)-3,3-dimethyl-1,2,3,4-tetrahydro-5H-pyrrolo[3,2-b]pyridin-5-one)], the EC50 in assay [1] is 0.49 to 12.6 nM. The IC50 at cIAP1-BIR3 is 7.94 to 15.8 nM; at cIAP1-BIR2, 1000 to 3160 nM; on cIAP2-BIR3, 7.94 to 15.8 nM; at cIAP2-BIR2, 3160 to 10000 nM; at XIAP-BIR3, 15.8 to 31.6 nM; on XIAP-BIR2 (FRET competition binding), 10000 to 51300 nM. The “cIAP1 BIR3 vs BIR2 separation window” value at cIAP1-BIR3 is “+++ (10,000>FS>1,000)”. For the same compound, the “cIAP2 BIR3 vs BIR2 separation window” value at cIAP2-BIR3 was “+++ (10,000>FS>1,000)”. Also, the “XIAP BIR3 vs BIR2 separation window” value at XIAP-BIR3 is reported as “++++ (FS>10,000)”.

Take `C[C@@H]1CN(CC(=O)N2CC(C)(C)c3[nH]c(=O)c(Cc4ccc(F)cc4)cc32)[C@@H](CN2CCO[C@H](C(=O)N(C)CCCCN(C)C(=O)[C@@H]3CN(C[C@H]4CN[C@H](C)CN4CC(=O)N4CC(C)(C)c5[nH]c(=O)c(Cc6ccc(F)cc6)cc54)CCO3)C2)CN1` [Example 127, (2S,2'S)-N,N′-(butane-1,4-diyl)bis(4-(((2R,5R)-1-(2-(6-(4-fluorobenzyl)-3,3-dimethyl-5-oxo-2,3,4,5-tetrahydro-1H-pyrrolo[3,2-b]pyridin-1-yl)-2-oxoethyl)-5-methylpiperazin-2-yl)methyl)-N-methylmorpholine-2-carboxamide)]: the EC50 in assay [1] was 63.1 to 316 nM. The IC50 at cIAP1-BIR3 was 7.94 to 15.8 nM; at cIAP1-BIR2 it was 1000 to 3160 nM; on cIAP2-BIR3, 7.94 to 15.8 nM; at cIAP2-BIR2 it was 1000 to 3160 nM; on XIAP-BIR3, 7.94 to 15.8 nM; on XIAP-BIR2 (FRET competition binding) it was 10000 to 51300 nM. On cIAP1-BIR3, the “cIAP1 BIR3 vs BIR2 separation window” value is reported as “+++ (10,000>FS>1,000)”. Further, the “cIAP2 BIR3 vs BIR2 separation window” value at cIAP2-BIR3 was “+++ (10,000>FS>1,000)”. In addition, the “XIAP BIR3 vs BIR2 separation window” value on XIAP-BIR3 is “++++ (FS>10,000)”.
